Tests used:
human recombinant HDAC1 = molecular target: T1, human recombinant HDAC1 (Homo sapiens, UniProt Q13547); experiment: HDAC1 enzyme activity inhibition assay (HDAC Fluorimetric Drug Discovery Kit); format: biochemical; settings: human recombinant HDAC1, Fluor de Lys substrate 10 μM, 30° C. 60 minutes
T1 construct: purchased Enzo Life Science BML-SE456
Method in brief: (§1)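 Human recombinant HDAC1 or HDAC6 (0.3 μg) reacted with 10 μM Fluor de Lys-SIRT1 substrate and 5-fold compound dilutions for 60 min at 30 °C. Developer II added for 30 min, fluorescence read at Ex 360/Em 460; IC50 calculated from the readings.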

human recombinant HDAC6 = molecular target: T2, human recombinant HDAC6 (Homo sapiens, UniProt Q9UBN7); experiment: HDAC6 enzyme activity inhibition assay (HDAC Fluorimetric Drug Discovery Kit); format: biochemical; settings: for HDAC6 selectivity (fold): HDAC6 over HDAC1; for IC50: human recombinant HDAC6, same protocol as HDAC1, read-out: HDAC6
T2 construct: purchased Calbiochem 382180
T2 sequence (Q9UBN7 1-1215): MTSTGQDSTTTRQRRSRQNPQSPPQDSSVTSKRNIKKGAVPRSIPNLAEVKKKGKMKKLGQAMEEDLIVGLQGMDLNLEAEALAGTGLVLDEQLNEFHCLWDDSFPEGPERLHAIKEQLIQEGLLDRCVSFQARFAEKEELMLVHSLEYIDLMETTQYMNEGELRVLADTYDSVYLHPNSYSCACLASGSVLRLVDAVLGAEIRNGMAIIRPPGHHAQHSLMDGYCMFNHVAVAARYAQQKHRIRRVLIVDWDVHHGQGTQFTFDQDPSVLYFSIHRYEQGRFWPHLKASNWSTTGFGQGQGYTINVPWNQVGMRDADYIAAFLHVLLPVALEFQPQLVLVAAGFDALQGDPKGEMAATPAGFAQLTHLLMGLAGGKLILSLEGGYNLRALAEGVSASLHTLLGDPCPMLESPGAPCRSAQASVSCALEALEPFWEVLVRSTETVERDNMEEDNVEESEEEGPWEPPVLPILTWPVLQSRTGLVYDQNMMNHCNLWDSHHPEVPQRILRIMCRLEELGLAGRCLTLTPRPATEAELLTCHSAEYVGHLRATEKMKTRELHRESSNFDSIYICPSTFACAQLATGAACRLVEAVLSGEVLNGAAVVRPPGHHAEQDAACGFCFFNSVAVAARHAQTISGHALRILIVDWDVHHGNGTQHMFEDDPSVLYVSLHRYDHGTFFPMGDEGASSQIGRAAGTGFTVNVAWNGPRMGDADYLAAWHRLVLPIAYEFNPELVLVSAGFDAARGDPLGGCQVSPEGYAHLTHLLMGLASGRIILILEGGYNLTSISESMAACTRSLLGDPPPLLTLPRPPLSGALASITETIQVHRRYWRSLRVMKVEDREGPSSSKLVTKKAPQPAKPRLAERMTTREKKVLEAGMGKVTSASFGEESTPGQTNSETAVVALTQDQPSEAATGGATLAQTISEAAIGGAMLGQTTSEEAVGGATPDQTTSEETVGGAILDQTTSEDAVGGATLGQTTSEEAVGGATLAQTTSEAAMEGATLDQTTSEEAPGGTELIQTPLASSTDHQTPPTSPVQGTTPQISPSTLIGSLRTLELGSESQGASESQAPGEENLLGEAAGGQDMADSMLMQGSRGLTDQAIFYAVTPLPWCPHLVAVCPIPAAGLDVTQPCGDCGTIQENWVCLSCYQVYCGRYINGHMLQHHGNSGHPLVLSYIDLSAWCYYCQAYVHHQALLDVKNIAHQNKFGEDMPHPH
Method in brief: as §1

T1 sequence (Q13547 whole entry): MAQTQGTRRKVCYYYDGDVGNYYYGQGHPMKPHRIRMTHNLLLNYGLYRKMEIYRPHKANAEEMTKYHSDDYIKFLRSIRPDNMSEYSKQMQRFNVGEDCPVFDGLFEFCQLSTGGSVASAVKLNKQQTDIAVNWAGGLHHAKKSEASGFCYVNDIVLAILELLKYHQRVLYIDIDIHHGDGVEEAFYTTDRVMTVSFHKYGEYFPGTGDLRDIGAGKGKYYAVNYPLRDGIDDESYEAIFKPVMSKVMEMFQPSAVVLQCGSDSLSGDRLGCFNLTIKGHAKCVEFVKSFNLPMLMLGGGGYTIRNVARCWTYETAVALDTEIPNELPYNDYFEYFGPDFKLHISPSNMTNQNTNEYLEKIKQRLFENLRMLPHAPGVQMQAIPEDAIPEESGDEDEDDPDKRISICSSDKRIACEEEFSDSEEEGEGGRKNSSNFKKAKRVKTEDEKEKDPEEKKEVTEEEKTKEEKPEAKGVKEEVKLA

SMILES | IC50 (human recombinant HDAC1) [µM] | HDAC6 selectivity (fold) (human recombinant HDAC6) | IC50 (human recombinant HDAC6) [µM]
O=C(N1CCOCC1)N(Cc1ccc(-c2nnc(C(F)(F)F)o2)cc1F)c1cccc(F)c1 [Compound 21846, N-(2-fluoro-4-(5-(trifluoromethyl)-1,3,4-oxadiazol-2-yl)benzyl)-N-(3-fluorophenyl)morpholine-4-carboxamide] | 21.3 | 173 | 0.123
O=C(N1CCOCC1)N(Cc1ccc(-c2nnc(C(F)F)o2)cn1)c1ccc(Cl)cc1 [Compound 21847, N-(4-chlorophenyl)-N-((5-(5-(difluoromethyl)-1,3,4-oxadiazol-2-yl)pyridin-2-yl)methyl) morpholine-4-carboxamide] | 70.2 | 1811 | 0.039
O=C(N1CCOCC1)N(Cc1ccc(-c2nnc(C(F)(F)F)o2)cn1)c1ccc(Cl)cc1 [Compound 21848, N-(4-chlorophenyl)-N-((5-(5-(trifluoromethyl)-1,3,4-oxadiazol-2-yl)pyridin-2-yl)methyl) morpholine-4-carboxamide] | 41.9 | 161 | 0.261
O=C(N1CCOCC1)N(Cc1ccc(-c2nnc(C(F)(F)F)o2)cc1F)c1ccc(Cl)cc1 [Compound 21850, N-(4-chlorophenyl)-N-(2-fluoro-4-(5-(trifluoromethyl)-1,3,4-oxadiazol-2-yl)benzyl)morpholine-4-carboxamide] | 68.6 | 157 | 0.436
O=C(N1CCOCC1)N(Cc1ccc(-c2nnc(C(F)(F)F)o2)cn1)c1cccc(Cl)c1 [Compound 21852, N-(3-chlorophenyl)-N-((5-(5-(trifluoromethyl)-1,3,4-oxadiazol-2-yl)pyridin-2-yl)methyl) morpholine-4-carboxamide] | 15.3 | 118 | 0.131
O=C(N1CCOCC1)N(Cc1ccc(-c2nnc(C(F)F)o2)cc1F)c1cccc(Cl)c1 [Compound 21853, N-(3-chlorophenyl)-N-(4-(5-(difluoromethyl)-1,3,4-oxadiazol-2-yl)-2-fluorobenzyl)morpholine-4-carboxamide] | 28.8 | 540 | 0.053
O=C(N1CCOCC1)N(Cc1ccc(-c2nnc(C(F)(F)F)o2)cc1F)c1cccc(Cl)c1 [Compound 21854, N-(3-chlorophenyl)-N-(2-fluoro-4-(5-(trifluoromethyl)-1,3,4-oxadiazol-2-yl)benzyl)morpholine-4-carboxamide] | 12.7 | 46 | 0.276
O=C(N1CCOCC1)N(Cc1ccc(-c2nnc(C(F)(F)F)o2)cn1)c1ccc(F)cc1F [Compound 21857, N-(2,4-difluorophenyl)-N-((5-(5-(trifluoromethyl)-1,3,4-oxadiazol-2-yl)pyridin-2-yl)methyl)morpholine-4-carboxamide] | 23.9 | 182 | 0.131
O=C(N1CCOCC1)N(Cc1ccc(-c2nnc(C(F)F)o2)cc1F)c1ccc(F)cc1F [Compound 21858, N-(4-(5-(difluoromethyl)-1,3,4-oxadiazol-2-yl)-2-fluorobenzyl)-N-(2,4-difluorophenyl)morpholine-4-carboxamide] | 37.1 | 966 | 0.038
O=C(N1CCOCC1)N(Cc1ccc(-c2nnc(C(F)(F)F)o2)cc1F)c1ccc(F)cc1F [Compound 21859, N-(2,4-difluorophenyl)-N-(2-fluoro-4-(5-(trifluoromethyl)-1,3,4-oxadiazol-2-yl)benzyl)morpholine-4-carboxamide] | 23.5 | 177 | 0.133

Continued, values first:

IC50 (human recombinant HDAC1) [µM] | HDAC6 selectivity (fold) (human recombinant HDAC6) | IC50 (human recombinant HDAC6) [µM] | SMILES
18 | 82 | 0.22 | CCN1CCN(C(=O)N(Cc2ccc(-c3nnc(C(F)(F)F)o3)cc2)c2cccc(Cl)c2)CC1 [Compound 21860, N-(3-Chlorophenyl)-4-ethyl-N-(4-(5-(trifluoromethyl)-1,3,4-oxadiazol-2-yl)benzyl)piperazine-1-carboxamide]
13.7 | 40 | 0.343 | CCN1CCN(C(=O)N(Cc2ccc(-c3nnc(C(F)(F)F)o3)cc2F)c2cccc(Cl)c2)CC1 [Compound 21861, N-(3-Chlorophenyl)-4-ethyl-N-(2-fluoro-4-(5-(trifluoromethyl)-1,3,4-oxadiazol-2-yl)benzyl)piperazine-1-carboxamide]
33.7 | 71 | 0.472 | CCN1CCN(C(=O)N(Cc2ccc(-c3nnc(C(F)(F)F)o3)cc2)c2ccc(Cl)cc2)CC1 [Compound 21862, N-(4-Chlorophenyl)-4-ethyl-N-(4-(5-(trifluoromethyl)-1,3,4-oxadiazol-2-yl)benzyl)piperazine-1-carboxamide]
25.8 | 65 | 0.4 | CCN1CCN(C(=O)N(Cc2ccc(-c3nnc(C(F)(F)F)o3)cc2F)c2ccc(Cl)cc2)CC1 [Compound 21863, N-(4-Chlorophenyl)-4-ethyl-N-(2-fluoro-4-(5-(trifluoromethyl)-1,3,4-oxadiazol-2-yl)benzyl)piperazine-1-carboxamide]
28.8 | 190 | 0.152 | CCN1CCN(C(=O)N(Cc2ccc(-c3nnc(C(F)(F)F)o3)cn2)c2ccc(Cl)cc2)CC1 [Compound 21864, N-(4-Chlorophenyl)-4-ethyl-N-((5-(5-(trifluoromethyl)-1,3,4-oxadiazol-2-yl)pyridin-2-yl)methyl)piperazine-1-carboxamide]
16.8 | 174 | 0.096 | CCN1CCN(C(=O)N(Cc2ccc(-c3nnc(C(F)(F)F)o3)cc2)c2cccc(F)c2)CC1 [Compound 21865, 4-Ethyl-N-(3-fluorophenyl)-N-(4-(5-(trifluoromethyl)-1,3,4-oxadiazol-2-yl)benzyl)piperazine-1-carboxamide]
23.9 | 174 | 0.137 | CCN1CCN(C(=O)N(Cc2ccc(-c3nnc(C(F)(F)F)o3)cc2F)c2cccc(F)c2)CC1 [Compound 21866, 4-Ethyl-N-(2-fluoro-4-(5-(trifluoromethyl)-1,3,4-oxadiazol-2-yl)benzyl)-N-(3-fluorophenyl)piperazine-1-carboxamide]
35.9 | 489 | 0.073 | CCN1CCN(C(=O)N(Cc2ccc(-c3nnc(C(F)(F)F)o3)cn2)c2cccc(F)c2)CC1 [Compound 21867, 4-Ethyl-N-(3-fluorophenyl)-N-((5-(5-(trifluoromethyl)-1,3,4-oxadiazol-2-yl)pyridin-2-yl)methyl)piperazine-1-carboxamide]
27.5 | 172 | 0.16 | CCN1CCN(C(=O)N(Cc2ccc(-c3nnc(C(F)(F)F)o3)cc2)c2ccc(F)cc2)CC1 [Compound 21868, 4-Ethyl-N-(4-fluorophenyl)-N-(4-(5-(trifluoromethyl)-1,3,4-oxadiazol-2-yl)benzyl)piperazine-1-carboxamide]
18.9 | 137 | 0.138 | CCN1CCN(C(=O)N(Cc2ccc(-c3nnc(C(F)(F)F)o3)cc2F)c2ccc(F)cc2)CC1 [Compound 21869, 4-Ethyl-N-(2-fluoro-4-(5-(trifluoromethyl)-1,3,4-oxadiazol-2-yl)benzyl)-N-(4-fluorophenyl)piperazine-1-carboxamide]
45.1 | 400 | 0.113 | CCN1CCN(C(=O)N(Cc2ccc(-c3nnc(C(F)(F)F)o3)cn2)c2ccc(F)cc2)CC1 [Compound 21870, 4-Ethyl-N-(4-fluorophenyl)-N-((5-(5-(trifluoromethyl)-1,3,4-oxadiazol-2-yl)pyridin-2-yl)methyl)piperazine-1-carboxamide]
